The values that follow come from US10519134B2, “Pyrazole compounds and methods of making and using same” (Lundbeck La Jolla Research Center, Inc., priority 2015, dated 2019).

A value given as a limit tells only on which side of the number the result lay.

Experiment [1] concerns the target T1, MAGL (Mus musculus, UniProt O35678).
T1 construct: Proteomes (mouse brain membrane fraction or cell lysates); from tissue; host or cells: mouse brain membrane fraction (or cell lysates)
T1 sequence (O35678 1-303): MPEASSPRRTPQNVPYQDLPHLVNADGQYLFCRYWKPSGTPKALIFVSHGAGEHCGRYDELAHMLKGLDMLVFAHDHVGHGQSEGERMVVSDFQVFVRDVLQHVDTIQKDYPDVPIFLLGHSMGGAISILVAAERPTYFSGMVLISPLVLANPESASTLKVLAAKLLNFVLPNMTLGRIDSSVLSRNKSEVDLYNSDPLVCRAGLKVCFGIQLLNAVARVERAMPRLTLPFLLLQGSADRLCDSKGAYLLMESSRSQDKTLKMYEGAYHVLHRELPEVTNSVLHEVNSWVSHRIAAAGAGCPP
The experiment can be described thus: In vitro competitive activity-based protein profiling (mouse), MAGL gel band. It counts as biochemical. As to conditions: for IC50: mouse; for inhibition at 1 µM: read-out: MAGL % inh. 1 μM. A digest of the protocol: (§1)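 Competitive ABPP: inhibitors at varying concentrations were given 30 min at 37 °C with mouse brain membranes or cell lysates (1.0 mg/mL total protein) before 30 min labelling by FP-Rh or HT-01 (stock 50 μM in DMSO). Residual hydrolase activity read as in-gel fluorescence of MAGL and FAAH bands.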

Experiment [2] concerns the target T2, MAGL (Homo sapiens, UniProt Q99685).
T2 construct: Proteomes (human prefrontal cortex or cell membrane fractions); from tissue; host or cells: human prefrontal cortex (or cell membrane fractions)
T2 sequence (Q99685 1-303): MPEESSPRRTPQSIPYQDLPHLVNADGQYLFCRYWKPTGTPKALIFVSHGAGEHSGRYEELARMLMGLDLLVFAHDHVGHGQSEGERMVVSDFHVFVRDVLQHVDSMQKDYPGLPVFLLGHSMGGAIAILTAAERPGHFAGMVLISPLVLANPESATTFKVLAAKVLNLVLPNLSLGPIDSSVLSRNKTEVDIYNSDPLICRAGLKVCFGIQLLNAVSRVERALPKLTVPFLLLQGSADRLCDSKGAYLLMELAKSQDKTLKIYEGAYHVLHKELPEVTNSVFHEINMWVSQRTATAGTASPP
The experiment can be described thus: In vitro competitive activity-based protein profiling (human), MAGL gel band. It counts as biochemical. An outline of the steps:
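Human prefrontal cortex or cell membrane proteomes (1.0-2.0 mg/mL protein) preincubated with inhibitors 30 min at 37° C, then labelled with FP-Rh or JW912 probe 30 min at room temperature. Residual MAGL activity read as fluorescent gel-band intensity after SDS-PAGE.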

Experiment [3] deals with T3, FAAH (Mus musculus, UniProt O08914).
T3 construct: Proteomes (mouse brain membrane fraction or cell lysates); from tissue; host or cells: mouse brain membrane fraction (or cell lysates)
T3 sequence (O08914 1-579): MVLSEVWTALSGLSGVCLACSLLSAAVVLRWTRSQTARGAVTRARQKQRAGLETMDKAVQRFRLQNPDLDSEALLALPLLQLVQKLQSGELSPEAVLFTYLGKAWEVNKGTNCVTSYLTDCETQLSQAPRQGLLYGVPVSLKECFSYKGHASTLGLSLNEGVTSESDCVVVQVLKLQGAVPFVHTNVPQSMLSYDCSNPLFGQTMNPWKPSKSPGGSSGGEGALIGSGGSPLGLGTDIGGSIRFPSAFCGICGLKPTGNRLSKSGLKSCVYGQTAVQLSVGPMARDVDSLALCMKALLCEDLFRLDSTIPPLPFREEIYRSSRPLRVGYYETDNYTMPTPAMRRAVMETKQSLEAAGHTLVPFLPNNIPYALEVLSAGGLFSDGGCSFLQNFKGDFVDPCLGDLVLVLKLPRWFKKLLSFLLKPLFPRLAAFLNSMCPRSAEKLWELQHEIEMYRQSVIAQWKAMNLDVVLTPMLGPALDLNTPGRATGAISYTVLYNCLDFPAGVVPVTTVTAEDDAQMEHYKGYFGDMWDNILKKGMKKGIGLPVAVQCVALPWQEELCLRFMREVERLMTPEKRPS
The experiment can be described thus: In vitro competitive activity-based protein profiling (mouse), FAAH gel band. As to conditions: for IC50: mouse; for inhibition at 1 µM: read-out: FAAH % inh. 1 μM. It counts as biochemical. An outline of the steps: as §1

Experiment [4] deals with T1, MAGL. The experiment can be described thus: Mouse brain proteomes from inhibitor treated mice (oral gavage, sacrificed 4 h after administration). It counts as in vivo. The following applies: read-out: MAGL % inh. 5 mg/kg. A digest of the protocol:
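Wild-type C57Bl/6J mice got compound by oral gavage in polyethylene glycol vehicle. Brain proteomes were prepared 4 h after dosing and analyzed for serine hydrolase activity.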

Turning to `CS(=O)(=O)Nc1ccn(C(=O)N2CCN(Cc3ccc(Cl)c(N4CC5COCC5C4)c3)CC2)n1` (stereo not drawn) [Example 203, N-(1-(4-(4-chloro-3-(tetrahydro-1H-furo[3,4-c]pyrrol-5(3H)-yl)benzyl)piperazine-1-carbonyl)-1H-pyrazol-3-yl) methanesulfonamide], the results for the IC50 in experiment [1], in experiment [2] and in experiment [3] were ≤ 100 nM, ≤ 100 nM and 1000 to 10000 nM, respectively. Further, the inhibition at 1 µM in experiment [1] was ≥ 75%; in experiment [3], 0 to 25%. In addition, in experiment [4], the inhibition at 5 mg/kg lay in the range of 0 to 25%.
Regarding `CS(=O)(=O)Nc1ccn(C(=O)N2CCN(Cc3ccc(Cl)c(N4C5CCC4COC5)c3)CC2)n1` [Example 204, N-(1-(4-(3-(3-oxa-8-azabicyclo[3.2.1]octan-8-yl)-4-chlorobenzyl)piperazine-1-carbonyl)-1H-pyrazol-3-yl) methanesulfonamide], the results for the IC50 in experiment [1], in experiment [2] and in experiment [3] were 100 to 1000 nM, ≤ 100 nM and 1000 to 10000 nM, respectively. The inhibition at 1 µM in experiment [1] was ≥ 75%; in experiment [3], 0 to 25%. Further, in experiment [4], the inhibition at 5 mg/kg was in the range of 0 to 25%.
Turning to `CC(=O)N1CC2CCC(C1)N2c1cc(C(F)(F)F)ccc1CN1CCN(C(=O)n2ccc(NS(C)(=O)=O)n2)CC1` [Example 207, N-(1-(4-(2-(3-acetyl-3,8-diazabicyclo[3.2.1]octan-8-yl)-4-(trifluoromethyl)benzyl)piperazine-1-carbonyl)-1H-pyrazol-3-yl) methanesulfonamide], the inhibition at 1 µM in experiment [1] was ≥ 75%; in experiment [3], 0 to 25%. In experiment [2], the IC50 was ≤ 100 nM. Also, the inhibition at 5 mg/kg in experiment [4] lay within 0 to 25%.
`CS(=O)(=O)Nc1ccn(C(=O)N2CCN(Cc3ccc(Cl)c(N4CC5CN(S(C)(=O)=O)CC5C4)c3)CC2)n1` (stereo not drawn) [Example 217, N-(1-(4-(4-chloro-3-(5-(methylsulfonyl)hexahydropyrrolo[3,4-c]pyrrol-2(1H)-yl)benzyl)piperazine-1-carbonyl)-1H-pyrazol-3-yl) methanesulfonamide]: the inhibition at 1 µM in experiment [1] was ≥ 75%; in experiment [3], 0 to 25%. Also, the IC50 in experiment [2] was ≤ 100 nM. For the same molecule, the inhibition at 5 mg/kg in experiment [4] fell in the range of 0 to 25%.
Consider `CS(=O)(=O)Nc1ccn(C(=O)N2CCN(Cc3ccc(C(F)(F)F)c(N4C5CCC4COC5)c3)CC2)n1` [Example 218, N-(1-(4-(3-(3-oxa-8-azabicyclo[3.2.1]octan-8-yl)-4-(trifluoromethyl)benzyl)piperazine-1-carbonyl)-1H-pyrazol-3-yl) methanesulfonamide], for which the inhibition at 1 µM is ≥ 75% in experiment [1] and 0 to 25% in experiment [3]. In addition, in experiment [2], the IC50 was ≤ 100 nM. Moreover, in experiment [4], the inhibition at 5 mg/kg is 25 to 50%.
Taken in the same sequence, the figures for `CS(=O)(=O)Nc1ccn(C(=O)N2CCN(Cc3ccc(Cl)c(OC4CCOCC4)c3)CC2)n1` [Example 219, N-(1-(4-(4-chloro-3-((tetrahydro-2H-pyran-4-yl)oxy)benzyl)piperazine-1-carbonyl)-1H-pyrazol-3-yl) methanesulfonamide] were ≥ 75%, 0 to 25%, ≤ 100 nM and 25 to 50%.
`CS(=O)(=O)Nc1ccn(C(=O)N2CCN(Cc3ccc(Cl)c(-c4nccs4)c3)CC2)n1` [Example 221, N-(1-(4-(4-chloro-3-(thiazol-2-yl)benzyl)piperazine-1-carbonyl)-1H-pyrazol-3-yl) methanesulfonamide]: the values for the inhibition at 1 µM in experiment [1] and in experiment [3] were ≥ 75% and 0 to 25%, respectively. Moreover, the IC50 in experiment [2] was ≤ 100 nM. In addition, in experiment [4], the inhibition at 5 mg/kg is 0 to 25%.
As to `CC(=O)N1CCC2(CC1)CN(c1cc(C(F)(F)F)ccc1CN1CCN(C(=O)n3ccc(NS(C)(=O)=O)n3)CC1)C2` [Example 229, N-(1-(4-(2-(7-acetyl-2,7-diazaspiro[3.5]nonan-2-yl)-4-(trifluoromethyl)benzyl)piperazine-1-carbonyl)-1H-pyrazol-3-yl) methanesulfonamide], the inhibition at 1 µM in experiment [1] is ≥ 75%; in experiment [3] it was 0 to 25%. Moreover, in experiment [2], the IC50 is ≤ 100 nM. The inhibition at 5 mg/kg in experiment [4] was 0 to 25%.
Consider `CC(=O)N1CCC2(CC1)CCN(c1cc(C(F)(F)F)ccc1CN1CCN(C(=O)n3ccc(NS(C)(=O)=O)n3)CC1)C2` [Example 232, N-(1-(4-(2-(8-acetyl-2,8-diazaspiro[4.5]decan-2-yl)-4-(trifluoromethyl)benzyl)piperazine-1-carbonyl)-1H-pyrazol-3-yl) methanesulfonamide], for which the inhibition at 1 µM in experiment [1] is ≥ 75%; in experiment [3], 0 to 25%. In experiment [2], the IC50 is ≤ 100 nM. The inhibition at 5 mg/kg in experiment [4] is 0 to 25%.
Take `CS(=O)(=O)Nc1ccn(C(=O)N2CCN(Cc3ccc(Cl)c(-c4ccc(C(F)(F)F)nc4)c3)CC2)n1` [Example 233, N-(1-(4-(4-chloro-3-(6-(trifluoromethyl)pyridin-3-yl)benzyl)piperazine-1-carbonyl)-1H-pyrazol-3-yl) methanesulfonamide]: the inhibition at 1 µM in experiment [1] was ≥ 75%; in experiment [3], 0 to 25%. Besides, the IC50 in experiment [2] is ≤ 100 nM. For the same molecule, in experiment [4], the inhibition at 5 mg/kg lay in the range of 25 to 50%.
As to `CS(=O)(=O)Nc1ccn(C(=O)N2CCN(Cc3cccc(Cl)c3N3CC4CCC(C3)O4)CC2)n1` [Example 288, N-(1-(4-(2-(8-oxa-3-azabicyclo[3.2.1]octan-3-yl)-3-chlorobenzyl)piperazine-1-carbonyl)-1H-pyrazol-3-yl) methanesulfonamide], the IC50 in experiment [1] is ≤ 100 nM; in experiment [2] it was ≤ 100 nM; in experiment [3], 1000 to 10000 nM. The inhibition at 1 µM was ≥ 75% in experiment [1] and 0 to 25% in experiment [3]. Besides, the inhibition at 5 mg/kg in experiment [4] lay in the range of 0 to 25%.
Regarding `[2H]C([2H])([2H])c1cc(CN2CCCC23CCN(C(=O)n2ccc(NC(C)=O)n2)CC3)ccc1Cl` [Example 294, N-(1-(1-(4-chloro-3-(methyl-d3)benzyl)-1,8-diazaspiro[4.5]decane-8-carbonyl)-1H-pyrazol-3-yl)acetamide], the inhibition at 1 µM in experiment [1] was ≥ 75%; in experiment [3], 0 to 25%. Also, the IC50 in experiment [2] was ≤ 100 nM. Moreover, in experiment [4], the inhibition at 5 mg/kg is ≥ 75%.

By IC50 is commonly meant the midpoint of a concentration-inhibition curve. Low values mean inhibition by little substance, high ones a need for much substance.
